Experimental data: PMC6078708 (Neuropharmacology, 2018)
Like-named read-outs stand apart in the source and are kept apart here. One block for each compound: values may come before it.

Legend:
α7 nAChR M260L = target: T1, α7 nAChR M260L (Homo sapiens, UniProt P36544, M283L); assay: Two-electrode voltage-clamp recording of mutated α7 nAChR (M260L) in Xenopus oocytes; assay type: cell-based; details: for activity at 100 µM: read-out: normalised response to EC50 ACh in presence of compound
T1 construct: expressed in transfected cells; host or cells: Xenopus laevis oocytes, injected with in vitro transcribed cRNA
T1 sequence (P36544 23-502 M283L): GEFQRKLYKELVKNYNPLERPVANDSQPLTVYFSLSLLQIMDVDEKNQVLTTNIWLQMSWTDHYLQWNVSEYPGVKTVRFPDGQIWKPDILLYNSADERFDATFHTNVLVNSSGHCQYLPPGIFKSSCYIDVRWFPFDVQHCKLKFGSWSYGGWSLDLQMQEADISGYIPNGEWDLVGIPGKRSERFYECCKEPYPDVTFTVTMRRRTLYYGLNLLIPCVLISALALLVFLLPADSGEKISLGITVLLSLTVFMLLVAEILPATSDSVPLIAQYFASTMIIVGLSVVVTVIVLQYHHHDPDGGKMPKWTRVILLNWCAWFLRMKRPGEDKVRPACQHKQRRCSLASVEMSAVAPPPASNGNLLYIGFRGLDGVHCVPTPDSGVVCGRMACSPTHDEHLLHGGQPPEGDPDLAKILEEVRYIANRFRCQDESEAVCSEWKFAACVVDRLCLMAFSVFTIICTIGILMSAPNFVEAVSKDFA
Description: (§1) Site-directed mutagenesis was performed using the QuikChange mutagenesis kit (Agilent Technologies) and verified by nucleotide sequencing (Source Bioscience).
(§2) Heterologous expression was achieved by cytoplasmic injection of in vitro transcribed cRNA. Prior to in vitro synthesis of cRNA plasmid cDNA was linearized by restriction enzyme digestion and purified with QIAQuik PCR purification kit (Qiagen). In vitro synthesis of cRNA was performed using mMessage mMachine SP6 and T7 transcription kits (ThermoFisher Scientific). Oocytes were injected with approximately 9 ng cRNA using a Drummond variable volume microinjector. […] Experiments were performed on oocytes after 3–5 days of incubation. […] Application of compounds was controlled by LabChart software (AD Instruments) using a BPS-8 solenoid valve solution exchange system (ALA Scientific Inc). Allosteric modulators were pre-applied for 30 s before co-application with agonist.
(§3) Data are presented as means ± SEM of at least three independent experiments, that were conducted on separate oocytes. For multiple comparisons, statistical significance was determined with an unpaired one-way analysis of variance (ANOVA). Post-hoc analysis was performed with a Tukey multiple comparison test. For individual comparisons, statistical significance was determined using unpaired t-tests.

[1] = target: α7/5-HT3AR chimera (extracellular domain of human α7 nAChR fused to transmembrane and C-terminal domain of mouse 5-HT3AR) (UniProt P23979+P36544, M226I/T225I); details: for effect on response evoked by maximal agonist concentration: compound 100 μM, 3 mM ACh
Sequence of α7/5-HT3AR chimera (extracellular domain of human α7 nAChR fused to transmembrane and C-terminal domain of mouse 5-HT3AR) (P36544+P23979 fused P36544:T225I/P36544:M226I): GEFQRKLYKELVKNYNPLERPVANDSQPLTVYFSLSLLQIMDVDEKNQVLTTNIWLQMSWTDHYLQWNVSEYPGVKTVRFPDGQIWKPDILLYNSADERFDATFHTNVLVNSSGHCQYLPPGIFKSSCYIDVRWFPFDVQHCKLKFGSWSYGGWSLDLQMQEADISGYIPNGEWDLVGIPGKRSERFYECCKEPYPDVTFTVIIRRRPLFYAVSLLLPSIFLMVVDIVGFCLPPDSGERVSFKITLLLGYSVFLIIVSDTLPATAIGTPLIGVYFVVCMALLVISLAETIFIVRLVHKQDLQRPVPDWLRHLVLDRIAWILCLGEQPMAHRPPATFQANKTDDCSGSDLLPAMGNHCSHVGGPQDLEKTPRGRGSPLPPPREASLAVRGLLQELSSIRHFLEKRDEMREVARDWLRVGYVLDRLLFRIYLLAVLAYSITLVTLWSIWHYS
Description: as §1, §2, §3

mouse 5-HT3AR = target: T2, mouse 5-HT3AR (Mus musculus, UniProt P23979); details: for response evoked by maximal agonist concentration in presence of compound: compound 100 μM, 30 μM 5-HT
T2 sequence (P23979 24-489): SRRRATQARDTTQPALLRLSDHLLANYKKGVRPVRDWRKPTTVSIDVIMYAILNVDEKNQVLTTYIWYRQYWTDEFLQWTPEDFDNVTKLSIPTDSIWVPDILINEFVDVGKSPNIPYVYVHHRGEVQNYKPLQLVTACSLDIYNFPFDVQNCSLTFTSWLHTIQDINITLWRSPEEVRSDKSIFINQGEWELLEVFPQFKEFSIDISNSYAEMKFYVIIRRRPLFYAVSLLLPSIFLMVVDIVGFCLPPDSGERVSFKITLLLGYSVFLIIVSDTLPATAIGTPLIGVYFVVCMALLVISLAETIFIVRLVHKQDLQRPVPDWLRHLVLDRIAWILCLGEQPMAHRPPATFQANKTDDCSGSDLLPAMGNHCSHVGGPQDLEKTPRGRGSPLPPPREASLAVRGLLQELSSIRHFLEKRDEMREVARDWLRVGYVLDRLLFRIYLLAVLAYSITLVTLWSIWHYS
Description: as §1, §2, §3

human α7 nAChR = target: T3, human α7 nAChR (Homo sapiens, UniProt P36544); assay: Two-electrode voltage-clamp recording of wild-type human α7 nAChR expressed in Xenopus oocytes; assay type: cell-based; details: for nature of antagonism against a range of ACh concentrations / response evoked by maximal agonist concentration in presence of compound: compound 100 μM; for response evoked by maximal agonist concentration in presence of compound: 3 mM ACh; for response to an EC50 concentration of ACh, % of the control response: compound 1 mM, ACh 100 μM; for effect when applied alone: no ACh; for activity at 100 µM: read-out: normalised response to EC50 ACh in presence of compound
T3 construct: expressed in transfected cells; host or cells: Xenopus laevis oocytes, injected with in vitro transcribed cRNA
T3 sequence (P36544 23-502): as the sequence (P36544 23-502 M283L) above, with L261M counted along it
Description: as §2, with “Allosteric modulators were pre-applied for 30 s before co-application with agonist.” left out
as §3

α7 nAChR L247A = target: T4, α7 nAChR L247A (Homo sapiens, UniProt P36544, L247A/L270A); assay: Two-electrode voltage-clamp recording of mutated α7 nAChR (L247A) in Xenopus oocytes; assay type: cell-based
T4 construct: expressed in transfected cells; host or cells: Xenopus laevis oocytes, injected with in vitro transcribed cRNA
T4 sequence (P36544 23-502 L247A/L270A): as the sequence (P36544 23-502 M283L) above, with L225A, L248A, L261M counted along it
Description: as §1, §2, §3

α7 nAChR S222M = target: T5, α7 nAChR S222M (Homo sapiens, UniProt P36544, S245M); assay: Two-electrode voltage-clamp recording of mutated α7 nAChR (S222M) in Xenopus oocytes; assay type: cell-based
T5 construct: expressed in transfected cells; host or cells: Xenopus laevis oocytes, injected with in vitro transcribed cRNA
T5 sequence (P36544 23-502 S245M): as the sequence (P36544 23-502 M283L) above, with S223M, L261M counted along it
Description: as §1, §2, §3

α7 nAChR S248A = α7 nAChR S248A (Homo sapiens, UniProt P36544, S271A); assay: cell-based
Sequence of α7 nAChR S248A (P36544 23-502 S271A): as the sequence (P36544 23-502 M283L) above, with S249A, L261M counted along it
Description: as §1, §2, §3

α7 nAChR T288A = α7 nAChR T288A (Homo sapiens, UniProt P36544, T311A); assay: cell-based
Sequence of α7 nAChR T288A (P36544 23-502 T311A): as the sequence (P36544 23-502 M283L) above, with L261M, T289A counted along it
Description: as §1, §2, §3

[2] = co-application only, no pre-application
[3] = read-out: normalised response to EC50 ACh in presence of compound
[4] = furosemide 1 mM, EC50 ACh (100 μM)
[5] = furosemide 1 mM, EC50 agonist (100 μM ACh)
[6] = furosemide 1 mM, maximal agonist (3 mM ACh)

Compound: Cc1cc(C)[n+](CCc2ccc(S(N)(=O)=O)cc2)c(C)c1 [DB04763, 1-N-(4-sulfamoylphenyl-ethyl)-2,4,6-tri methyl p yr id i ni u m]
activity at 100 µM (α7 nAChR M260L): 30.1 ± 2.4%
effect on response evoked by maximal agonist concentration [1]: not significantly different to their effects on 5-HT3ARs
response evoked by maximal agonist concentration in presence of compound (mouse 5-HT3AR): 92.1 ± 1.7%
type of allosteric modulation (human α7 nAChR): NAMs
antagonism in the absence of pre-application (human α7 nAChR; [2]): significant antagonism
nature of antagonism against a range of ACh concentrations (human α7 nAChR): non-surmountable
response evoked by maximal agonist concentration in presence of compound (human α7 nAChR): 20.0 ± 1.3%
response to an EC50 concentration of ACh, % of the control response (human α7 nAChR): 3.4 ± 0.9%
effect when applied alone (human α7 nAChR; compound alone): None of the three compounds had any significant effect when applied alone
IC50 (human α7 nAChR; read-out: IC50 for inhibition of agonist-evoked responses): 46.4 ± 2.2 µM
activity at 100 µM (human α7 nAChR): 20.1 ± 3.1%
activity at 100 µM (α7 nAChR L247A; [3]): 52.4 ± 0.8%

activity at 100 µM (α7 nAChR S222M; [3]): 77.2 ± 3.7%
activity at 100 µM (α7 nAChR S248A; [3]): 99.6 ± 1.6%
activity at 100 µM (α7 nAChR T288A; [3]): 65 ± 1.2%
activity at 100 µM (α7 nAChR M260L): 101 ± 3.1%
response evoked by maximal agonist concentration in presence of compound (mouse 5-HT3AR): did not cause significant inhibition
IC50 (human α7 nAChR): 1700 ± 300 µM
type of allosteric modulation (human α7 nAChR): NAMs
antagonism in the absence of pre-application (human α7 nAChR; [2]): significant antagonism
nature of antagonism against a range of ACh concentrations (human α7 nAChR): non-surmountable
response evoked by maximal agonist concentration in presence of compound (human α7 nAChR): 76.0 ± 4.8%
response to an EC50 concentration of ACh, % of the control response (human α7 nAChR): 60.6 ± 1.2%
activity at 100 µM (human α7 nAChR): 90.6 ± 1.8%
Compound: CNS(=O)(=O)c1ccc(N/C=C2\C(=O)Nc3ccccc32)cc1 [DB08122, N-methyl-4-{[(2-oxo-1,2-dihydro-3h-indol-3-ylidene)methyl]amino}b en z en esul fon ami de]
effect on response evoked by maximal agonist concentration [1]: not significantly different to their effects on 5-HT3ARs
effect when applied alone (human α7 nAChR; compound alone): None of the three compounds had any significant effect when applied alone

potentiation of an EC50 concentration of ACh by furosemide (α7 nAChR S222M; [4]): 244 ± 25%
ACh-evoked response in presence of furosemide, relative to control response (α7 nAChR S248A; [4]): 102 ± 5.6%
ACh-evoked response in presence of furosemide, relative to control response (α7 nAChR T288A; [4]): 99.2 ± 1.2%
agonist-evoked response in presence of furosemide, of the control response (α7 nAChR M260L; [4]): 63 ± 8%
agonist-evoked response in presence of furosemide [1, 5]: 98.2 ± 3.4%
agonist-evoked response in presence of furosemide (potentiation) [1, 6]: 108 ± 2%
agonist effect when applied alone (mouse 5-HT3AR; compound alone, no 5-HT): no agonist effect
agonist-evoked response in presence of furosemide (mouse 5-HT3AR; furosemide 1 mM, EC50 agonist (1 μM 5-HT)): 93.9 ± 3.7%
agonist-evoked response in presence of furosemide (potentiation) (mouse 5-HT3AR; furosemide 1 mM, maximal agonist (30 μM 5-HT)): 108 ± 2%
type of allosteric modulation (human α7 nAChR): type I PAM
potentiation of ACh responses in the absence of pre-application (human α7 nAChR; [2]): no significant potentiation
maximum level of potentiation of ACh responses (human α7 nAChR; furosemide 1 mM): 1.6 ± 0.1 fold
effect when applied alone (human α7 nAChR; furosemide 1 mM): no effect
agonist-evoked response in presence of furosemide (potentiation) (human α7 nAChR; [5]): 136 ± 7%
agonist-evoked response in presence of furosemide (potentiation) (human α7 nAChR; [6]): 149 ± 6%
EC50 (human α7 nAChR; read-out: EC50 for potentiation of agonist-evoked responses): 200 ± 40 µM
ACh-evoked response in presence of furosemide, relative to control response (α7 nAChR L247A; furosemide 1 mM, EC50 ACh (10 μM)): 99.9 ± 4.3%
Compound: NS(=O)(=O)c1cc(C(=O)O)c(NCc2ccco2)cc1Cl [furosemide, Furosemide]
